Molecular target: T1, human serum albumin (HSA) (Homo sapiens, UniProt P02768)
T1 construct: gene ALB; essentially fatty acid free HSA
Experiment: intrinsic fluorescence quenching, double-log plot
Assay type: binding
Conditions: 300 K, phosphate buffer pH 7.4, 15 µM HSA, <2% DMSO
Text: intrinsic fluorescence quenching, double-log plot on human serum albumin (HSA)

T1 sequence (P02768 25-609): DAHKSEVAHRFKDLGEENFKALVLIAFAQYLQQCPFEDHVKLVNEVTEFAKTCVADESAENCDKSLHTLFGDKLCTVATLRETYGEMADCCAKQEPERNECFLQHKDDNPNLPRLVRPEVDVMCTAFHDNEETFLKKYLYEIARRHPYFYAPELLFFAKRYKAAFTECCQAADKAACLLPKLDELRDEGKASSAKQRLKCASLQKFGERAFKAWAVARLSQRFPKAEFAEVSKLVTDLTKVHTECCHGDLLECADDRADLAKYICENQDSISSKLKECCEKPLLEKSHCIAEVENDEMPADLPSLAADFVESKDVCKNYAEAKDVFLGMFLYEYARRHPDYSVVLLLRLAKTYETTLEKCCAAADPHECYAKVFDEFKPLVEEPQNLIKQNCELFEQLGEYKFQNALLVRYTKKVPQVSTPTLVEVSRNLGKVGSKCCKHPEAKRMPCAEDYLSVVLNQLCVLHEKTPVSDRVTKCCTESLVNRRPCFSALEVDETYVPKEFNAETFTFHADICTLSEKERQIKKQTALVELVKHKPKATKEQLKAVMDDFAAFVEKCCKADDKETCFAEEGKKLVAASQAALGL

Kb	Structure (SMILES)
4550 M⁻¹	COc1cc(O[C@@H]2O[C@H](CO)[C@@H](OC)[C@H](O)[C@H]2O)c(CC=C(C)C)c(O)c1C(=O)/C=C/c1ccc(O)cc1 [compound 5, Xanthohumol 4’-O-β-D-(4’’’-O-methyl)glucopyranoside]
4850 M⁻¹	COc1cc(O[C@@H]2O[C@H](CO)[C@@H](O)[C@H](O)[C@H]2O)c(CC=C(C)C)c2c1C(=O)/C(=C/c1ccc(O)cc1)O2 [compound 8, (Z)-6,4’-Dihydroxy-4-methoxy-7-prenylaurone 6-O-β-D-glucopyranoside]
4480 M⁻¹	COc1cc(O[C@@H]2O[C@H](CO)[C@@H](O)[C@H](O)[C@H]2O)c(CC=C(C)C)c(O)c1C(=O)CCc1ccc(O)cc1 [compound 6, α,β-Dihydroxanthohumol 4’-O-β-D-glucopyranoside]
6110 M⁻¹	COc1cc(O[C@@H]2O[C@H](CO)[C@@H](OC)[C@H](O)[C@H]2O)c(CC=C(C)C)c(O)c1C(=O)CCc1ccc(O)cc1 [compound 7, α,β-Dihydroxanthohumol 4’-O-β-D-(4’’’-O-methyl)glucopyranoside]
14250 M⁻¹	COc1cc(O)c(CC=C(C)C)c2c1C(=O)/C(=C/c1ccc(O)cc1)O2 [compound 3, (Z)-6,4’-dihydroxy-4-methoxy-7-prenylaurone]
32710 M⁻¹	COc1cc(O[C@@H]2O[C@H](CO)[C@@H](O)[C@H](O)[C@H]2O)c(CC=C(C)C)c(O)c1C(=O)/C=C/c1ccc(O)cc1 [compound 4, Xanthohumol 4’-O-β-D-glucopyranoside]
86240 M⁻¹	COc1cc(O)c(CC=C(C)C)c(O)c1C(=O)/C=C/c1ccc(O)cc1 [compound 1, 3’-[3”,3”-dimethylallyl]-2’,4’,4-trihydroxy-6’-methoxychalcone]
36350 M⁻¹	COc1cc(O)c(CC=C(C)C)c(O)c1C(=O)CCc1ccc(O)cc1 [compound 2, α,β-dihydroxanthohumol]
9150 M⁻¹	COc1cc(O[C@@H]2O[C@H](CO)[C@@H](OC)[C@H](O)[C@H]2O)c(CC=C(C)C)c2c1C(=O)/C(=C/c1ccc(O)cc1)O2 [compound 9, (Z)-6,4’-Dihydroxy-4-methoxy-7-prenylaurone 6-O-β-D-(4’’’-O-methyl)glucopyranoside]

Reference: article PMC6152009, “The Influence of Glycosylation of Natural and Synthetic Prenylated Flavonoids on Binding to Human Serum Albumin and Inhibition of Cyclooxygenases COX-1 and COX-2” (Molecules : A Journal of Synthetic Chemistry and Natural …, 2017)
